Measured values as given in patent US20080039535A1, “METHODS OF IDENTIFYING AGENTS FOR TREATING NEUROLOGICAL DISORDERS” (Wyeth, priority 2006, published 2008).
Where two headings read alike, the source gives them in different places.

Tests used:
GPR88 KO and WT mice [1] = assay: In vivo striatal microdialysis, extracellular dopamine after amphetamine; conditions: 3 mg/kg i.p.; both genotypes, males and females
Experimental: Chromatographic separations were performed using a Capcell PAK™, Strong Cation Exchange columns (5 μm UG80, 1.5×150 mm; Shiseido, Phenomenex, USA). The mobile phase comprised (mM) 13 Na2HPO4, 87 NaH2PO4, 0.1 EDTA and 20% methanol, was adjusted to pH 6 and delivered at 0.2 ml/minutes at 40° C.

GPR88 KO and WT mice [2] = assay: Amphetamine-stimulated locomotor hyperactivity; format: in vivo; conditions: 3 mg/kg i.p.
Experimental: The amphetamine-stimulated locomotor hyperactivity assay is another type of assay to model the neuropathological states in schizophrenia, similar to the hyperdopaminergia in the ventral striatum. To measure spontaneous activity and amphetamine-stimulated locomotor hyperactivity, the mice were individually placed in Opto-Veramax-3 monitor cages (Columbus Instruments, Columbus, Ohio) and allowed to habituate for 30 minutes with room light and white noise on. After habituation, each mouse was injected with amphetamine (AMPH, 3 mg/kg) in the intraperitoneum. During the first 30 minutes, the spontaneous activity was recorded every 10 minutes. After amphetamine administration, amphetamine-stimulated locomotor hyperactivity was measured every 10 minutes over a 60 minutes time span by the activity monitor. Accuscan Versamax and Versadat software (Columbus Instruments, Columbus, Ohio) were used to convert the infrared beam breaks into horizontal activity counts. […] Males and females were analyzed separately.

GPR88 KO and WT mice [3] = assay: Phencyclidine-stimulated locomotor hyperactivity; format: in vivo
GPR88 KO and WT mice [4] = assay: Apomorphine-induced climbing and stereotypy; format: in vivo
Experimental: (§1) The GPR88 KO and WT mice were acclimated to a wire cage (cylindrical ½″×½″ mesh with the dimensions of 4½″ d×5½″ h) for at least 2 hours before testing to allow proper habituation. […] (+ present, − absent). Readings were repeated every 5 minutes during a 30-minute test session.
The behavioral assessment was conducted over three conditions in succession: (1) an evaluation of the response to a subcutaneous vehicle (0.25% TWEEN® 80) injection to establish a baseline; (2) followed by an evaluation of the response to a dose of 0.3 mg/kg subcutaneous apomorphine injection; (3) followed by an evaluation of the response to 1 mg/kg subcutaneous apomorphine injection. Behavioral observation began 5 minutes after each injection. Vehicle was given at T0 minutes with observational assessment from T5-T35 minutes and habituation followed from T35-T65 minutes.
At T65, the 0.3 mg/kg dose of apomorphine was administered. Behavioral observation for the 0.3 mg/kg dose of apomorphine was from T70-T100, followed by another habituation from T100-T130 minutes.
At T130 min, the 1.0 mg/kg dose of apomorphine was administered and then the mice were scored from T135-T165 min. For each subject, the climbing scores were totaled for each observational period (maximum=12 per animal). Stereotypy scores were also summed up (maximum=6 per animal). […] Males and females were analyzed separately.

GPR88 KO and WT mice [5] = assay: Antipsychotic block of apomorphine-induced climbing and stereotypy; format: in vivo; conditions: for minimal effective dose (MED), block of apomorphine-induced climbing / minimal effective dose (MED), block of apomorphine-induced stereotypy: i.p. 30 minutes before apomorphine 0.54 mg/kg
Experimental: as §1
Observation and scoring for climbing and stereotypy were performed as described in Example 6. […] Males and females were analyzed separately. […] For graphical representation, the data was normalized to the amount of climbing and stereotypy shown by the vehicle treated control group.

GPR88 KO and WT mice [6] = assay: Haloperidol-induced catalepsy; conditions: 1 mg/kg i.p.; for percentage of maximum catalepsy over time: 30, 60, 90, 120 minutes
Experimental: Thirty, 60, 90, and 120 minutes following drug administration, the animal's forelimbs were draped over a thin horizontal rod 1¼″ high. The amount of time in seconds for which the animal maintained this awkward posture was recorded (60 seconds was maximum). Maintenance of this position was considered catalepsy. Animals that appeared to be sedated or had loss of muscle tone were checked for a righting reflex. Those mice that could not right themselves when placed on their backs were eliminated from the study. Mean time spent in the catalepsy position for the dose at each time was expressed as a percentage of maximum possible catalepsy. During the study's four time periods, the number of seconds with maintenance of the catalepsy position was recorded for each animal. Data was subjected to repeated-measures ANOVA followed by post-hoc analysis of least squares means. Males and females were analyzed separately.

[7] = target: T1, striatal dopamine D2 receptors (Mus musculus, UniProt P61168); assay: [3H]spiperone binding to striatal membrane preparations; design: species or system mice
T1 construct: from tissue; host or cells: mouse striatum (WT and GPR88 knockout mice), membrane preparation
T1 sequence (P61168 whole entry): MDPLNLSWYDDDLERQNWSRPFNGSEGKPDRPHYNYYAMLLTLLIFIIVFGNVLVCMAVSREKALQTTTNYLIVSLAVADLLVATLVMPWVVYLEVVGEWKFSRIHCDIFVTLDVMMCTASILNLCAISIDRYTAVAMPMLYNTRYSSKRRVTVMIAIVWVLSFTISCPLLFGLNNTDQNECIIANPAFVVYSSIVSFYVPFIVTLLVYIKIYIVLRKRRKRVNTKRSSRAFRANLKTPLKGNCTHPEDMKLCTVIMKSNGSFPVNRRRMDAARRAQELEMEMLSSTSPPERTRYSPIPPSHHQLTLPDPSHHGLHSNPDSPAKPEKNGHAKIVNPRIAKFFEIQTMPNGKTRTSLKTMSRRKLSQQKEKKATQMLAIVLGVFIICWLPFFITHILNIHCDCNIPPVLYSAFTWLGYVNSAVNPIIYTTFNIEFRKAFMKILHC
Experimental: Striata from 10 mice (male and female, WT & GPR88 KO) were pooled and homogenized in a motor-driven POLYTRON™ homogenizer (Kinematica AG, Newark, N.J.) at setting six for 10 seconds in 3 mL per 100 mg of wet tissue in 50 mM Tris-HCl buffer, pH 7.4, containing 120 mM NaCl, 5 mM KCl, 1.5 mM CaCl2, 4 mM MgCl2, and 1 mM EDTA. […] The binding of each concentration of radioligand was determined in duplicate. Incubations were carried out at room temperature for 120 minutes. The final concentration of the membrane protein in each binding assay was approximately 70 μg/ml. Butaclamol (+), (10 μM), (Sigma-Aldrich, St. Louis, Mo.) was used to define the nonspecific binding. The incubations were terminated by rapid filtration using a Wallac Tomtec harvester (Waltham, Mass.) and buffer-presoaked glass fiber filter mats (GF/B, Whatman Inc. Florham Park, N.J.). […] The radioactivity of the filters was then counted in a Wallac 1205 scintillation counter (Perkin Elmer Life and Analytical Sciences).
The estimates of Bmax (the number of available binding receptors) and Kd (the dissociation constant) were calculated by fitting the specific binding data with nonlinear regression using GraphPad PRISM™ data analysis software (GraphPad Software, San Diego, Calif.).

GPR88 KO and WT mice [8] = conditions: for percentage prepulse inhibition (PPI), treatment effect: 0.54 mg/kg i.p. 30 minutes before testing, vs vehicle
Experimental: To detect potential phenotypic deficits in the GPR88 knockout mice, they were first evaluated for startle habituation. In brief, mice were tested using the SR-LAB (San Diego Instruments, San Diego, Calif.) system. Each system consists of a ventilated sound attenuated chamber containing a stabilimeter consisting of a Plexiglas cylinder (12.5 cm length, 3.5 cm diameter) mounted on a Plexiglas frame. Acoustic stimuli were delivered through a speaker mounted in the enclosure ceiling, that was 27 cm above the cylinder. Startle responses were transduced by a piezoelectric accelerometer mounted beneath the frame. Output signals were digitized and rectified as consecutive 1-millisecond (msec) readings (a total of 65 were recorded, and startle response was expressed as an averaged response across these samples) on a computer using the San Diego Instrument software. Mice were placed individually in the chamber for a 5-minute acclimation period at a background noise level of 64 dB.
Prepulse inhibition was measured immediately following the startle sensitivity test. Five different trial tests were used in studying prepulse inhibition and were performed in a pseudorandom order. These trial tests included (1) a no stimulus trial (64 dB background noise to determine basal activity), a pulse alone trial (118 dB, 40 ms duration), and three 20 ms prepulses at either 69, 76, or 84 dB intensities paired (100 ms, onset to onset) with the 118 dB pulse. […] Percentage prepulse inhibition was calculated as 100 minus the ratio of the average startle response observed at each prepulse+pulse trial relative to the pulse alone stimulus, times 100. The percentage prepulse at across dB levels was analyzed by repeated-measures ANOVA. […] Males and females were analyzed separately. […]
The PPI was averaged across the 3 dB levels and analyzed by a two-way ANOVA with genotype and treatment as the factors followed by a post hoc analysis of least square means. Males and females were again analyzed separately.

[9] = female GPR88 KO and WT mice, 1 mg/kg s.c.
[10] = GPR88 KO and WT female mice, 0.3 mg/kg
[11] = male WT mice, 0.54 and 1.0 mg/kg

SMILES: CC(N)Cc1ccccc1 (centres unmarked) [amphetamine]
- striatal extracellular dopamine after administration (GPR88 KO and WT mice [1]): significant and equal increase in dopamine
- locomotor activity after administration (GPR88 KO and WT mice [2]; female mice, 40-90 min): significant increase in activity
- locomotor activity, KO compared with WT (GPR88 KO and WT mice [2]; female mice, 40-90 min): more hyperactivity overall
- locomotor activity after administration (GPR88 KO and WT mice [2]; male mice (GPR88 KO), 40-90 min): significant increase in activity
- locomotor activity, KO compared with WT (GPR88 KO and WT mice [2]; male mice): greater increase in activity up to the 50 minute time point

SMILES: c1ccc(C2(N3CCCCC3)CCCCC2)cc1 [PCP, phencyclidine]
- locomotor activity after administration (GPR88 KO and WT mice [3]; female WT and GPR88 KO mice, 1.0 mg/kg): Neither of the genotypes responded
- locomotor activity after administration (GPR88 KO and WT mice [3]; female WT and GPR88 KO mice, 1.7 mg/kg or 3.0 mg/kg): increased locomotor activity
- locomotor activation (total distance traveled), KO compared with WT (GPR88 KO and WT mice [3]; female mice): increased sensitivity for locomotor activation
- locomotor activity after administration (GPR88 KO and WT mice [3]; male WT and GPR88 KO mice, 3 mg/kg i.p.): increased locomotor activity
- locomotor activity after administration (GPR88 KO and WT mice [3]; male WT and GPR88 KO mice, lower doses (1.0, 1.7 mg/kg)): Neither of the genotypes responded
- locomotor activation (total distance traveled), KO compared with WT (GPR88 KO and WT mice [3]; male mice): increased sensitivity for locomotor activation

SMILES: CN1CCc2cccc3c2[C@H]1Cc1ccc(O)c(O)c1-3 [apomorphine]
- average increase in climbing scores of GPR88 KO mice over the wild type mice (GPR88 KO and WT mice [4]; apomorphine-induced): 227%
- average increase in stereotypy scores of GPR88 KO mice over the wild type mice (GPR88 KO and WT mice [4]; apomorphine-induced): 129%
- climbing, dose effect (GPR88 KO and WT mice [4]; [9]): the most climbing
- stereotypy, dose effect (GPR88 KO and WT mice [4]; [9]): the most stereotypy
- climbing scores, KO compared with WT (GPR88 KO and WT mice [4]; female mice, 0.3 mg/kg s.c.): higher climbing scores
- stereotypy, KO compared with WT (GPR88 KO and WT mice [4]; female mice, 0.3 mg/kg s.c.): more stereotypy
- climbing, KO compared with WT (GPR88 KO and WT mice [4]; female mice, 1 mg/kg s.c.): equivalent
- stereotypy scores, dose effect (GPR88 KO and WT mice [4]; male GPR88 KO and WT mice, 1 mg/kg s.c.): maximal stereotypy
- climbing scores, dose effect (GPR88 KO and WT mice [4]; male GPR88 KO and WT mice, vehicle, 0.3 and 1 mg/kg s.c.): climbing increasing with the dose of apomorphine
- climbing scores, KO compared with WT (GPR88 KO and WT mice [4]; male mice, 0.3 mg/kg s.c.): higher climbing scores
- stereotypy, KO compared with WT (GPR88 KO and WT mice [4]; male mice, 0.3 mg/kg s.c.): more stereotypy
- climbing, KO compared with WT (GPR88 KO and WT mice [4]; male mice, 1 mg/kg s.c.): equivalent
- stereotypy, KO compared with WT (GPR88 KO and WT mice [4]; male mice, 1 mg/kg s.c.): equivalent

SMILES: O=C(CCCN1CCC(O)(c2ccc(Cl)cc2)CC1)c1ccc(F)cc1 [haloperidol]
- block of apomorphine-induced climbing (GPR88 KO and WT mice [5]; [10]): full block of climbing
- block of apomorphine-induced stereotypy (GPR88 KO and WT mice [5]; [10]): full block of stereotypy
- dose required to produce a full block of climbing (GPR88 KO and WT mice [5]; male GPR88 KO mice): 1.0 mg/kg
- minimal effective dose, apomorphine-induced climbing and stereotypy (summary) (GPR88 KO and WT mice [5]; male GPR88 KO mice): 0.54 mg/kg
- block of apomorphine-induced stereotypy (GPR88 KO and WT mice [5]; male GPR88 KO mice, 1.0 mg/kg): 50%
- minimal effective dose (MED), block of apomorphine-induced climbing (GPR88 KO and WT mice [5]; male GPR88 KO mice): 0.54 mg/kg
- minimal effective dose (MED), block of apomorphine-induced stereotypy (GPR88 KO and WT mice [5]; male GPR88 KO mice): 0.54 mg/kg
- minimal effective dose, apomorphine-induced climbing and stereotypy (summary) (GPR88 KO and WT mice [5]; male WT mice): < 0.3 mg/kg
- block of apomorphine-induced climbing (GPR88 KO and WT mice [5]; [11]): full block of climbing
- block of apomorphine-induced stereotypy (GPR88 KO and WT mice [5]; [11]): full block of stereotypy
- minimal effective dose (MED), block of apomorphine-induced climbing (GPR88 KO and WT mice [5]; male WT mice): less than or equal to 0.3 mg/kg
- minimal effective dose (MED), block of apomorphine-induced stereotypy (GPR88 KO and WT mice [5]; male WT mice): less than or equal to 0.3 mg/kg
- percentage of maximum catalepsy over time (GPR88 KO and WT mice [6]; GPR88 KO and WT male mice): percentage of maximum catalepsy increasing to the 120 minute test point
- percentage of maximum catalepsy over time (GPR88 KO and WT mice [6]; female mice): percentage of maximum catalepsy increasing to the 120 minute test point
- level of catalepsy, GPR88 KO compared with WT (GPR88 KO and WT mice [6]; male and female mice): equivalent levels of catalepsy

SMILES: O=C(CCCN1CCC2(CC1)C(=O)NCN2c1ccccc1)c1ccc(F)cc1 [[^3H]spiperone]
- Bmax (the number of available binding receptors) ([7]; striatal membranes of GPR88 KO mice): 1.83 pmol/mg
- Bmax (the number of available binding receptors) ([7]; striatal membranes of WT mice): 1.34 pmoles/mg protein

SMILES: Cc1nc2n(c(=O)c1CCN1CCC(c3noc4cc(F)ccc34)CC1)CCCC2 [risperidone]
- deficit in PPI of GPR88 KO mice upon treatment (GPR88 KO and WT mice [8]; GPR88 KO mice, summary statement): normalized
- percentage prepulse inhibition (PPI), treatment effect (GPR88 KO and WT mice [8]; male GPR88 KO mice): significant treatment effect
- percentage prepulse inhibition (PPI), treatment effect (GPR88 KO and WT mice [8]; male WT mice): significant treatment effect
